Structures are written as SMILES.

One may read the Kd as the equilibrium constant for the complex coming apart. Higher therefore signals lower affinity.

The experiment concerns the target T1, nucleophosmin 1 (NPM1) (Homo sapiens, UniProt P06748).
T1 construct: full length of NPM1, recombinant, expressed in E. coli
In words: SPR (Biacore […], NPM1 immobilized on NTA chip). Format: binding. (In general: In SPR one partner is held on a chip, and binding of the other changes the refractive index at the surface.)

T1 sequence (P06748 whole entry): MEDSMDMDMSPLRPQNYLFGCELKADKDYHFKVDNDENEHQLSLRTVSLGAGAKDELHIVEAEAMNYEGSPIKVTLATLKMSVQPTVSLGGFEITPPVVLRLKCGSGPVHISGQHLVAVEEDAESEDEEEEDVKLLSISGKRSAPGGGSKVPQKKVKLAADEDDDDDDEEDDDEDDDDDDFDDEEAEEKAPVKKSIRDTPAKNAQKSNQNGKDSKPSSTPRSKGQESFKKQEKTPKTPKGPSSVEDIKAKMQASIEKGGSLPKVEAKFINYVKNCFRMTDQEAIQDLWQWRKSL

For `Nc1cccc2c1CN(C1CCC(=O)NC1=O)C2=O` (centres unmarked) [lenalidomide], the Kd is 766 nM.
In the case of `CC(C)c1cccc(C(C)C)c1N1C(=O)c2ccc(N)cc2C1=O` [TC11, 2-(2,6-diisopropylphenyl)-5-amino-1H-isoindole-1,3-dione] it was 62.3 nM.

Values taken from publication PMC4305313, “A Novel Phthalimide Derivative, TC11, Has Preclinical Effects on High-Risk Myeloma Cells and Osteoclasts” (PLoS ONE, 2015).
